Measured values taken from patent publication US9421204B2, “Oligomer modified diaromatic substituted compounds” (priority 2010, dated 2016).
Read-outs that look alike come from different tables or passages of the source.

How the values were obtained:
[1] = tested on: NL4-3; experiment: Anti-HIV cytoprotection assay, wild type NL4-3; assay type: cell-based, HIV-1; settings: for TI: HIV-1 strain NL4-3
Protocol: Cells were prepared as described above. Virus Preparation—The wild type NL4-3 and drug resistant A17 viruses were obtained from the NIH AIDS Research and Reference Reagent Program and stock virus pools were produced in CEM-SS cells. Amino acid substitutes of L100I, Y181C and P23L were introduced by site-directed mutagenesis into pN L4-3 and stock virus pools were produced in CEM-SS cells. A pretitered aliquot of virus was removed from the freezer (−80° C.) and allowed to thaw slowly to room temperature in a biological safety cabinet.
Plate Format—Each plate contains cell control wells (cells only), virus control wells (cells plus virus), drug toxicity wells (cells plus drug only), drug colorimetric control wells (drug only) as well as experimental wells (drug plus cells plus virus). Samples were tested in triplicate with eleven half-log dilutions per compound. Efficacy and Toxicity XTT—Following incubation at 37° C. in a 5% CO2 incubator, the test plates were stained with the tetrazolium dye XTT (2,3-bis(2-methoxy-4-nitro-5-sulfophenyl)-5-[(phenylamino)carbonyl]-2H-tetrazolium hydroxide). XTT-tetrazolium was metabolized by the mitochondrial enzymes of metabolically active cells to a soluble formazan product, allowing rapid quantitative analysis of the inhibition of HIV induced cell killing by anti-HIV test substances. XTT solution was prepared daily as a stock of 1 mg/mL in RPMI1640. Phenazine methosulfate (PMS) solution was prepared at 0.15 mg/mL in PBS and stored in the dark at −20° C. XTTIPMS stock was prepared immediately before use by adding 40 μL of PMS per ml of XTT solution. Fifty microliters of XTT/PMS was added to each well of the plate and the plate was re-incubated for 4 hours at 37° C. Plates were sealed with adhesive plate sealers and shaken gently or inverted several times to mix the soluble formazan product and the plate was read spectrophotometrically at 450/650 nm with a Molecular Devices Vmax plate reader.
Data Analysis—Raw data was collected from the Softmax Pro 4.6 software and imported into a Excel XLFit4 spreadsheet for analysis by four parameter curve fit calculations. Both antiviral activity and toxicity are calculated.

[2] = Log P determination (Sirius GLpKa); assay type: physicochemical; settings: Partition Log P, 25° C.; for logP: read-out: Log P
Protocol: The Sirius GLpKa instrument is used to determine the pKa and Log P. A blank standardization has to be completed first and passed in order to conduct the compound experiments. The solutions used by the instrument for the blank titration include water, a pH solution, and a surfactant (TRITON X-100). The TRITON X-100 was purchased commercially from Sirus. The 0.5% solution of TRITON X-100 was used in the experiment. In a 1 L volumetric flask 5 mls of TRITON X-100 is added and MILLI Q water to volume. The vessels used by the instrument were filled to ⅓ of their volume with each solution. Therefore the assay tray contains one vessel for water, pH solution, and surfactant for the blank run. The temperature of the water bath for the instrument is 25° C. The blank is calculated as an average of three “good” experiments. The “good” was denoted by a green check mark next to the assay number in the computer software. Once the blank was run successfully the instrument was ready to conduct the experiments. An additional method has to be set up for the Log P determinations for each compound. The conjugates are weighed into vessels in the same manner as for the previous experiment, i.e., 10% of the molecular weight. The vessels are placed in the assay tray of the instrument. The experimental parameters are entered into the computer. These included sample weight, molecular weight, assay type (Partition Log P), number of assays (three), and pKa value of the parent drug from the previous experiment. The run was started. There are three measurements for each run that are averaged to obtain the final results from the data points collected in the calculation software. All runs were denoted as “good” by the green check mark next to the assay number.

[3] = Toxicity XTT in CEM-SS cells (cytoprotection assay); assay type: cell-based; settings: human, CEM-SS cells, XTT; read-out: CEM-SS TC50
In short: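 CEM-SS cells in exponential growth (>95% viable) were plated with compound alone, as eleven half-log dilutions in triplicate, at 37 °C and 5% CO2. Viability was measured by XTT/PMS metabolism over 4 h, read at 450/650 nm. Toxicity was derived by four-parameter curve fitting.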

[4] = in vitro; assay type: in vitro ADME; settings: human; for Papp A→B at 2 hours, 10 μM / Papp B→A at 2 hours, 10 μM: pH 7.4; for Papp A→B at 2 hours, 10 μM: read-out: Average Papp, A→B; for Papp B→A at 2 hours, 10 μM: read-out: Average Papp, B→A; for efflux ratio at 2 hours, 10 μM: read-out: Efflux Ratio (B→A/A→B)
Protocol: Each determination was performed in duplicate.
Vr is the volume of the receiver compartment in cm^3.
Vd is the volume of the donor compartment in cm^3.
A is the area of the cell monolayer (1.13 cm^2 for 12-well Transwell®).
CN is the nominal dosing concentration of the dosing solution in μM.
CA is the average of the nominal dosing concentration and the measured 120 minute donor concentration in μM.
Cr^final is the receiver concentration in μM at the end of the incubation period.
Cd^final is the concentration of the donor in μM at the end of the incubation period.

[5] = Human immunodeficiency virus 1, NL43, CEM-SS
[6] = Caco-2, pH 7.4, Test 2, 10 μM, read-out: Recovery (%) A→B
[7] = Caco-2, pH 7.4, Test 2, 10 μM, read-out: Recovery (%) B→A
[8] = Caco-2, pH 7.4, Test 1, 10 μM, read-out: Recovery (%) A→B
[9] = Caco-2, pH 7.4, Test 1, 10 μM, read-out: Recovery (%) B→A

Compound	TI [1]	EC50 ([1]; HIV-1 strain NL4-3, CEM-SS cells, read-out: EC50)	Log P [2]	EC50 [1, 5]	CC50 [3]	Papp A→B at 2 hours, 10 μM ([4]; Caco-2, pH 7.4, Test 2, 10 μM)	Papp B→A at 2 hours, 10 μM ([4]; Caco-2, pH 7.4, Test 2, 10 μM)	recovery at 2 h, 10 μM [4, 6]	recovery at 2 h, 10 μM [4, 7]	efflux ratio at 2 hours, 10 μM ([4]; Caco-2, pH 7.4, Test 2)	Papp A→B at 2 hours, 10 μM ([4]; Caco-2, pH 7.4, Test 1, 10 μM)	Papp B→A at 2 hours, 10 μM ([4]; Caco-2, pH 7.4, Test 1, 10 μM)	recovery at 2 h, 10 μM [4, 8]	recovery at 2 h, 10 μM [4, 9]	efflux ratio at 2 hours, 10 μM ([4]; Caco-2, pH 7.4, Test 1)	logP [2]
5-O-mPEG9-Delavirdine [mPEG9-O-Delavirdine]	>5.6	0.89 µM	2.328													
COCCNc1ccc2[nH]c(C(=O)N3CCN(c4ncccc4NC(C)C)CC3)cc2c1 [5-mPEG1-NH-Delavirdine, 5-mPEG-NH-Delavirdine]	>50.0			0.02 µM	50.9 µM	50.2 ×10⁻⁶ cm/s	39.4 ×10⁻⁶ cm/s	91%	92%	0.8						
COCCOCCNc1ccc2[nH]c(C(=O)N3CCN(c4ncccc4NC(C)C)CC3)cc2c1 [5-mPEG2-NH-Delavirdine]	>12.5			0.08 µM	55.5 µM	46.2 ×10⁻⁶ cm/s	41.1 ×10⁻⁶ cm/s	88%	88%	0.9						
COCCOCCOCCOc1ccc2[nH]c(C(=O)N3CCN(c4ncccc4NC(C)C)CC3)cc2c1 [mPEG3-O-Delavirdine, 5-O-mPEG3-Delavirdine]	>83.3			0.06 µM	26.9 µM	41.4 ×10⁻⁶ cm/s	29.1 ×10⁻⁶ cm/s	95%	101%	0.7	38.4 ×10⁻⁶ cm/s	33.9 ×10⁻⁶ cm/s	66%	61%	0.9	1.98
COCCOCCOCCOCCOc1ccc2[nH]c(C(=O)N3CCN(c4ncccc4NC(C)C)CC3)cc2c1 [mPEG4-O-Delavirdine, 5-O-mPEG4-Delavirdine]	>5.8			0.87 µM	34 µM						39.3 ×10⁻⁶ cm/s	34.8 ×10⁻⁶ cm/s	74%	65%	0.9	2.22
COCCOCCOCCOCCOCCOc1ccc2[nH]c(C(=O)N3CCN(c4ncccc4NC(C)C)CC3)cc2c1 [mPEG5-O-Delavirdine, 5-O-mPEG5-Delavirdine]					14.4 µM	33.3 ×10⁻⁶ cm/s	38.9 ×10⁻⁶ cm/s	97%	95%	1.2	29.9 ×10⁻⁶ cm/s	39.1 ×10⁻⁶ cm/s	71%	65%	1.3	
COCCOCCOCCOCCOCCOCCOc1ccc2[nH]c(C(=O)N3CCN(c4ncccc4NC(C)C)CC3)cc2c1 [mPEG6-O-Delavirdine, 5-O-mPEG6-Delavirdine]					22.5 µM						16.1 ×10⁻⁶ cm/s	34.1 ×10⁻⁶ cm/s	67%	72%	2.1	2.65
COCCOCCOCCOCCOCCOCCOCCOc1ccc2[nH]c(C(=O)N3CCN(c4ncccc4NC(C)C)CC3)cc2c1 [mPEG7-O-Delavirdine, 5-O-mPEG7-Delavirdine]					35.5 µM	23.1 ×10⁻⁶ cm/s	39.3 ×10⁻⁶ cm/s	94%	95%	1.7	14.2 ×10⁻⁶ cm/s	36.6 ×10⁻⁶ cm/s	74%	69%	2.6	2.73
COCCOCCOCCOCCOCCOCCOCCOCCOc1ccc2[nH]c(C(=O)N3CCN(c4ncccc4NC(C)C)CC3)cc2c1 [mPEG8-O-Delavirdine, 5-O-mPEG8-Delavirdine]					52.5 µM						4.98 ×10⁻⁶ cm/s	43.6 ×10⁻⁶ cm/s	80%	82%	8.8	2.58
